Laboratory results: article PMC7232244, “Aspartic Acid Isomerization Characterized by High Definition Mass Spectrometry Significantly Alters the Bioactivity of a Novel Toxin from Poecilotheria” (Toxins, 2020)
Numbered stars: 1 amine (or outer) side, 2 acyl side, 3 side chain; on linkers, the order of the positions; unused ones are H or OH. Bridge positions count the residues as written; N and C are the ends. Square brackets hold non-standard residues; d marks the D form. Peptide text beside a SMILES is read from it. βAsp = O=C(O)[C@H](CC(=O)[*:2])N[*:1]

Format: physicochemical
Details: chromatographic, reversed-phase UPLC BEH C18, 0.10% formic acid/acetonitrile gradient; P. vittata venom (Figure 3A); taken as increased solubility / loss of hydrophobicity
From the text: We used an iterative series of analytical processes to identify potential peptide modulators for neuronal activity and subsequently identified their primary structure, including PTMs, that may alter their efficacy and potency. In the initial phase of toxin selection, venom from Poecilotheria were collected and screened by HDMS^E. The venom was a complex mixture of molecules with a high percentage of proteinaceous materials ranging from 3–6 kDa with an average venom yield from 50 collections (five from each of the ten species) of ~148 ± 12 μg of total protein per μL of venom as determined by conventional Bradford assay (data not shown). An analytical screening of each venom was performed for preliminary compound identification and any PTMs, e.g., isobaric conformations. 100 μg of lyophilized venom from each species of Poecilotheria were suspended in 1 mL of the initial mobile phase and a 1 μL aliquot injection was made into an UPLC coupled to a HDMS. […]
In order to calculate the molecular mass, we deconvoluted the charge envelope of each peptide using high-resolution mass spectrometry MS scans (“MS” in HDMS^E). […] The molecular monoisotopic masses of PcaTX-1a and PcaTX-1b were determined to be 4024.710 Da and 4024.709 Da, respectively (Figure 3B,C). […]

CC(C)C[C@@H]1NC(=O)[C@H](Cc2c[nH]cn2)NC(=O)[C@H](CCCCN)NC(=O)[C@@H]2CSSC[C@H](NC(=O)CNC(=O)[C@H](C)N)C(=O)N[C@@H](CCCCN)C(=O)N[C@@H](Cc3ccc(O)cc3)C(=O)N[C@@H](CC(C)C)C(=O)N[C@@H](Cc3ccccc3)C(=O)NCC(=O)N[C@@H](CO)C(=O)N[C@H]3CSSC[C@H](NC(=O)CNC1=O)C(=O)N[C@@H](CCCNC(=N)N)C(=O)N[C@@H](CCCNC(=N)N)C(=O)N[C@@H](CCCCN)C(=O)N[C@@H](C)C(=O)N1CCC[C@H]1C(=O)N[C@@H](CCC(N)=O)C(=O)N[C@@H](Cc1ccc(O)cc1)C(=O)N[C@H](C(=O)NCC(=O)N[C@@H](Cc1c[nH]c4ccccc14)C(=O)N[C@@H](CC(=O)NCC(=O)N[C@H](C(=O)N[C@@H](Cc1ccccc1)C(N)=O)[C@@H](C)O)C(=O)O)CSSC[C@H](NC(=O)[C@H](CC(=O)O)NC(=O)[C@H](CO)NC(=O)[C@H](CC(=O)O)NC(=O)[C@H](CCC(=O)O)NC(=O)[C@H](CCCCN)NC3=O)C(=O)N2 [PcaTX-1a] (H-AGCKYLFGSCKEDSDCCKHLGCRRKAPQYCGW[βAsp]GTF-NH2; disulfide 3-17, 10-22, 16-30)
decrease of partition coefficient (k') as compared to PcaTX-1b: 9.3%
